{
  "source": "patent US20250144087A1",
  "about": "“USE OF VE607 FOR THE TREATMENT OF SARS-COV-2 INFECTIONS AND RELATED DISEASES” (priority 2022, published 2025)",
  "key": {"[1]": {"system": "pseudoviral particles expressing the Spike from SARS-CoV-2", "experiment": "microbe, parasite or virus in culture", "format": "cell-based"}, "SARS-CoV-2 RBD": {"target": "T1, SARS-CoV-2 RBD (Severe acute respiratory syndrome coronavirus 2, UniProt P0DTC2)", "T1 construct": "hexahistidine (C); made in house; host or cells: FreeStyle 293 F cells", "format": "binding"}, "[2]": {"system": "pseudoviral particles bearing the SARS-CoV-1 Spike", "experiment": "microbe, parasite or virus in culture", "format": "cell-based", "conditions": "Severe acute respiratory syndrome coronavirus, HEK-293T"}, "[3]": {"system": "pseudoviral particles bearing the VSV-G", "experiment": "microbe, parasite or virus in culture", "format": "cell-based", "conditions": "Vesicular stomatitis virus, HEK-293T"}, "[4]": {"system": "SARS-CoV-2 S glycoprotein"}, "VERO-E6 cells": {"system": "VERO-E6 cells", "experiment": "Toxicity on VERO-E6 cells, AquaVivid staining", "conditions": "concentrations up to 100 μM"}},
  "data": [
    {"molecule": "O[C@H](COc1cccc(OC[C@H](O)CN2CCCCC2)c1)CN1CCCCC1", "note": "[(R,S)-VE607]", "values": [
      {"measurement": "fold less potent than the two other enantiomers in SARS-CoV-2 pseudoviral inhibition", "setting": "[1]; SARS-CoV-2 S pseudoviral particles", "value": "about 2 fold"}
    ]},
    {"molecule": "C=CCC(/C=C/OCC(O)CN(CC)CCC)OCC(O)CN(CC)CCC", "note": "(stereo not shown) [VE607]", "values": [
      {"measurement": "ΔTm (change of melting temperature of RBD)", "setting": "SARS-CoV-2 RBD", "value": "−2.3", "unit": "°C"},
      {"measurement": "IC50", "setting": "[2]", "value": 1.47, "unit": "µM"},
      {"measurement": "IC50", "setting": "[1]; Severe acute respiratory syndrome coronavirus 2, HEK-293T", "value": 3.06, "unit": "µM"},
      {"measurement": "IC50", "setting": "[3]", "value": "> 100", "unit": "µM"},
      {"measurement": "effect on Spike conformational landscape (up/down)", "setting": "[4]", "value": "stabilized the “up” conformation"},
      {"measurement": "toxicity", "setting": "VERO-E6 cells", "value": "no toxicity was observed"}
    ]},
    {"molecule": "CN1CCN(c2ccc(CNC(=O)c3ccno3)cc2)CC1", "note": "[SSAA09E2, reference compound]", "values": [
      {"measurement": "ΔTm (change of melting temperature of RBD)", "setting": "SARS-CoV-2 RBD", "value": "−0.7", "unit": "°C"},
      {"measurement": "effect on the infection of pseudoviral particles", "setting": "[1]", "value": "no effect"}
    ]},
    {"molecule": "sACE2", "values": [
      {"measurement": "effect on Spike conformational landscape (up/down)", "setting": "[4]", "value": "shifted the conformational landscape of the Spike to the “up” conformation"}
    ]}
  ]
}
